{
  "source": "patent US6166000A",
  "about": "“Methods for preparation and use of 1α,24(S)-Dihydroxy vitamin . D.sub2” (priority 1995, dated 2000)",
  "key": {"bovine thymus VDR": {"molecular_target": "T1, bovine thymus VDR (Bos taurus, UniProt Q28037)", "T1 construct": "commercially available kit of bovine thymus VDR; purchased Incstar (Stillwater, Minn.); host or cells: bovine thymus", "T1 sequence (Q28037 1-426)": "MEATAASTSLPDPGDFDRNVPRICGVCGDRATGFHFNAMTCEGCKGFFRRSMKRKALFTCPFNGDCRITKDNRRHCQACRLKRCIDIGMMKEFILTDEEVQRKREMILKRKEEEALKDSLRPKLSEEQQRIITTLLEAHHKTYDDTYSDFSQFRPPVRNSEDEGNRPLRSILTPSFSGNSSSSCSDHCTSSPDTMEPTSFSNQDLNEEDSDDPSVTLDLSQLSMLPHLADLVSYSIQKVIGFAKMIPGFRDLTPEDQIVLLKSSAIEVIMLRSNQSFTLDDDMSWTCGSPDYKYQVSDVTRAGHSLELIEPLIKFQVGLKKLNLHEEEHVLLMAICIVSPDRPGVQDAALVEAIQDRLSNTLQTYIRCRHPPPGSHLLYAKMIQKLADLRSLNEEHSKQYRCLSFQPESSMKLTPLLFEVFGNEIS", "experiment": "Radioreceptor assay, displacement of 3H-1α,25-(OH)2 D3 tracer (Incstar kit)", "assay_type": "binding", "conditions": "in words", "description": "Purified 1α,24(S)-(OH)2 D2 was quantitated by photodiode array spectrophotometry and assayed in the radioreceptor assay.\nThe purified 1α,24(R)-(OH)2 D2 and 1α,24(S)-(OH)2 D2 epimers were quantitated by ultraviolet spectroscopy. The concentration of 1α,24(R)-(OH)2 D2 required to produce the same displacement of ^3 H-1α,25-(OH)2 D3 tracer from the receptor was 20 to 30 times that required for 1α,24(S)-(OH)2 D2, as shown in FIG. 4."}, "[1]": {"molecular_target": "T2, vitamin D serum binding protein (DBP) (Rattus norvegicus, UniProt P04276)", "T2 sequence (P04276 17-476)": "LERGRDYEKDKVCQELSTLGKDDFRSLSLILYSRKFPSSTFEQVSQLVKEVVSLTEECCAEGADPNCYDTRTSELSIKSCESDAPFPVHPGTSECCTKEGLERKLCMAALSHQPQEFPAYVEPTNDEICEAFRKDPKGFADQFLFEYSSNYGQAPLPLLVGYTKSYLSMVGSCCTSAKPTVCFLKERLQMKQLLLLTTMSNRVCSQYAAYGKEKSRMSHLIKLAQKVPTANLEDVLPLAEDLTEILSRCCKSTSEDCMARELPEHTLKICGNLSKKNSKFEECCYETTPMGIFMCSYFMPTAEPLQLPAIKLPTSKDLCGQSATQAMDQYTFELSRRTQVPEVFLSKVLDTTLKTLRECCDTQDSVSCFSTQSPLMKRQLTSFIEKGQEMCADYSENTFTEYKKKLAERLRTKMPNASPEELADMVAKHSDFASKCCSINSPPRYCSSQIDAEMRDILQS", "experiment": "Affinity for vitamin D serum binding protein using vitamin D deficient rat serum", "conditions": "in words", "description": "In addition, the weak binding by the DBP was indicative of more rapid clearance, allowing for low toxicity."}, "[2]": {"experiment": "Blood metabolite levels in osteoporotic women administered 1α-OH-D2", "assay_type": "in vivo", "conditions": "one day after a single 2 μg dose of 1α-OH-D2; human females", "description": "An increase in the production of 1α,24(S)-(OH)2 D2 relative to 1α,25-(OH)2 D2 has also been observed by the present inventors in human females who received 1α-OH-D2 as part of an investigation of that drug for the treatment of osteoporosis. Following either a single dose of 2 μg of 1α-OH-D2 or daily doses of 8 μg/day for one week, blood was collected and analyzed for the metabolites 1α,24(S)-(OH)2 D2 and 1α,25-(OH)2 D2. Lipid was extracted from the blood, and the metabolites were purified by HPLC using standard methods and quantified with the radioreceptor assay produced by Incstar (Stillwater, Minn.). One day after a single 2 μg dose, the level of 1α,24(S)-(OH)2 D2 was undetectable with the 1α,25-(OH)2 D2 level being approximately 11 pg/ml. In contrast, one day following the last dose of 8 μg, the level of 1α,24(S)-(OH)2 D2 averaged 9 pg/ml with the 1α,25-(OH)2 D2 level averaging 30 pg/ml."}, "Human keratinocytes": {"system": "Human keratinocytes", "experiment": "Epidermal cell differentiation and proliferation testing", "assay_type": "cell-based", "conditions": "0.05 to 5 μg/ml", "description": "Human keratinocytes are cultured according to known modifications of the system originally described by Rheinwald and Green (Cell, vol. 6, p. 331 (1975)). The 1α,24(S)-dihydroxy vitamin D2, dissolved in ethanol, is added to cells to yield a variety of concentrations between 0.05 and 5 μg/ml with the ethanol concentration not to exceed 0.5% v/v. Control cultures are supplemented with ethanol at a final concentration of 0.5% v/v.\nDifferentiation and proliferation of epidermal cells in culture is examined by:\n1. quantitation of cornified envelopes;\n2. quantitation of cell density of cells attached to disks;\n3. monitoring transglutaminase activity; or\n4. monitoring DNA synthesis by incorporation of ^3 H-thymidine."}, "HL-60 promyelocytes": {"system": "HL-60 promyelocytes", "experiment": "HL-60 cell differentiation assay", "assay_type": "cell-based", "conditions": "dose-response; acid esterase, NBT reduction, thymidine incorporation", "description": "A dose-response study is conducted with 1α,24(S)-(OH)2 D2 in the HL-60 cell differentiation assay as described by DeLuca and Ostrom (DeLuca, H. F. and Ostrem, V. K., Prog. Clin. Biol. Res., vol. 259, pp. 41-55 (1988)). In this study, 1α,25-(OH)2 D3 is used as a positive control and appropriate solvents are used as negative controls. The following variables are evaluated: nonspecific acid esterase activity, nitroblue tetrazolium (NBT) reduction, and thymidine incorporation."}, "[3]": {"system": "human cancer cell lines BCA-1 or ZR-75-1 (breast) and COL-1 (colon)", "experiment": "Antiproliferative activity in human cancer cell lines (thymidine incorporation)", "assay_type": "cell-based", "conditions": "dose-response", "description": "Dose-response studies are conducted with 1α,24(S)-(OH)2 D2 in a battery of human cancer cell lines. These cell lines include, but are not limited to, the following: BCA-1 or ZR-75-1 (breast) and COL-1 (colon), as described by Shieh, H. L. et al. Chem. Biol. Interact., vol. 81, pp. 35-55 (1982). In this study, appropriate solvents are used as negative controls."}},
  "note": "Entries after “also recorded” stand apart in the source; their conditions may differ.",
  "data": [
    {"smiles": "C=C1/C(=C\\C=C2/CCC[C@]3(C)[C@@H]([C@H](C)/C=C/[C@@](C)(O)C(C)C)CC[C@@H]23)C[C@@H](O)C[C@@H]1O", "note": "[1α,24(S)-(OH)2 D2, 1α,24(S)-dihydroxy Vitamin D2]", "values": [
      {"measurement": "affinity for VDR relative to 1α,25-(OH)2 D3", "setting": "bovine thymus VDR", "result": "two-fold less competitive; also recorded: two-fold lower affinity"},
      {"measurement": "binding affinity for the vitamin D serum binding protein", "setting": "[1]", "result": "more weakly than does 1,25-(OH)2 D3"},
      {"measurement": "blood level of metabolite", "setting": "[2]", "result": "undetectable"},
      {"measurement": "DNA synthesis (3H-thymidine incorporation) vs control cultures", "setting": "Human keratinocytes", "result": "lower DNA synthesis"},
      {"measurement": "cell density of attached cells vs control cultures", "setting": "Human keratinocytes", "result": "fewer attached cells"},
      {"measurement": "cornified envelopes vs control cultures", "setting": "Human keratinocytes", "result": "more cornified envelopes"},
      {"measurement": "transglutaminase activity vs control cultures", "setting": "Human keratinocytes", "result": "higher transglutaminase activity"},
      {"measurement": "differentiation of HL-60 promyelocytes to monocytes", "setting": "HL-60 promyelocytes", "result": "potent activity in promoting differentiation"},
      {"measurement": "antiproliferative activity (inhibition of thymidine incorporation)", "setting": "[3]", "result": "potent (and reversible) antiproliferative activity"}
    ]}
  ]
}
